Assay results reported in PMC12279193 (Advanced Science, 2025).

Legend:
[1] = molecular target: MERS-CoV S-trimer protein (Betacoronavirus England 1, UniProt K9N5Q8); experiment: biochemical; format: binding
[2] = molecular target: SARS-CoV S-trimer protein (Severe acute respiratory syndrome-related coronavirus, UniProt P59594); experiment: biochemical; format: binding

Sequence of MERS-CoV S-trimer protein (K9N5Q8 18-1294 limits assumed): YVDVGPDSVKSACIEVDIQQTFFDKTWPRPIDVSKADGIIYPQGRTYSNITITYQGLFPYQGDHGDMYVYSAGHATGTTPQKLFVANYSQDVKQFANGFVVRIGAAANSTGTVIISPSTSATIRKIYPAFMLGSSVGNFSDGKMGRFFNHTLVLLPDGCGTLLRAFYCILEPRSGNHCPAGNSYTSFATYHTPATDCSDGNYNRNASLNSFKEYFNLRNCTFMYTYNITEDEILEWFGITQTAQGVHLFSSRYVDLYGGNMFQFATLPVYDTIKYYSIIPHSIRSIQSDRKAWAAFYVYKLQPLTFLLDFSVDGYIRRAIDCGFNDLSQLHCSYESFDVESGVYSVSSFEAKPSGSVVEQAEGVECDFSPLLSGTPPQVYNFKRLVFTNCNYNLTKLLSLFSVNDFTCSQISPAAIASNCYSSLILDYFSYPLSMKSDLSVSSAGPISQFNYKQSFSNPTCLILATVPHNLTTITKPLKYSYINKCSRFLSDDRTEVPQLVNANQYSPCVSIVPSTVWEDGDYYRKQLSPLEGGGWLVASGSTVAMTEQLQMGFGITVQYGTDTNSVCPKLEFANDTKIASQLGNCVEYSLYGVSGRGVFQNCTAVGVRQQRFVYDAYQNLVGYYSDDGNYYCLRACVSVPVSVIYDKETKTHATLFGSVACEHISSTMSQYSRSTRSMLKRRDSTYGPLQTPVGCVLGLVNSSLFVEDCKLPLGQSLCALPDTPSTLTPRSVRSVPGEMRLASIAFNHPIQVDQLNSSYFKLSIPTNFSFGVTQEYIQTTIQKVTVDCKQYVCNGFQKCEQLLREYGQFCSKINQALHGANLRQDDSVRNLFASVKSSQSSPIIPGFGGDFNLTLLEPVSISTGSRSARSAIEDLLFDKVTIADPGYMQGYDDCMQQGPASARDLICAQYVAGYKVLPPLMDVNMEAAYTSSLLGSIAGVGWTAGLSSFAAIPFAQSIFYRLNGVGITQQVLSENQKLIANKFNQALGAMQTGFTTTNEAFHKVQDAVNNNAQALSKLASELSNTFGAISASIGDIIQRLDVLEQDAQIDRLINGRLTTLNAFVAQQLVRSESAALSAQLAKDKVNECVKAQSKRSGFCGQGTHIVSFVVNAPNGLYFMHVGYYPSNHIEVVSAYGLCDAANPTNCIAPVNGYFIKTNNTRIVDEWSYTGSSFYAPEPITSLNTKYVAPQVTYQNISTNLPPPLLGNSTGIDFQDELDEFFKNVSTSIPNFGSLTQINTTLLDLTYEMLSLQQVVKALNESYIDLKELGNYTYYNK

CN(/N=C/c1ccccc1C(=O)O)c1nc(-c2ccccc2Cl)cs1 [S416] showed a Kd [1] of 55.4 µM and a Kd [2] of 27.2 µM.
